Measured values reported in US20210040118A1, “IMMUNOMODULATORS, COMPOSITIONS AND METHODS THEREOF” (BETTA PHARMACEUTICALS CO., LTD, priority 2018, published 2021).

Target: T1, PD-1/PD-L1 (Homo sapiens, UniProt Q9NZQ7)
T1 construct: Recombinant human PD-L1 protein (19-238) with a His-tag at the C-terminus; purchased AcroBiosystems PD1-H5229 (PD-L1); PD1-H5257 (PD-1)
Assay: PD-1/PD-L1 homogenous time-resolved fluorescence (HTRF) binding assay
Conditions: recombinant human PD-L1 (19-238) His-tag / human PD-1 (25-167) Fc tag, class symbols
Summary of the method: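 Inhibitors were preincubated 40 min at 25°C with 10 nM His-tagged human PD-L1 (19-238) and 3 nM Fc-tagged human PD-1 (25-167) in PBS pH 7.4 containing Tween-20, BSA and 1% DMSO. After 60 min with europium anti-human IgG and anti-His-APC, 665/620 nm signal ratio gave IC50 via percent-control fit.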

T1 sequence (Q9NZQ7 19-238): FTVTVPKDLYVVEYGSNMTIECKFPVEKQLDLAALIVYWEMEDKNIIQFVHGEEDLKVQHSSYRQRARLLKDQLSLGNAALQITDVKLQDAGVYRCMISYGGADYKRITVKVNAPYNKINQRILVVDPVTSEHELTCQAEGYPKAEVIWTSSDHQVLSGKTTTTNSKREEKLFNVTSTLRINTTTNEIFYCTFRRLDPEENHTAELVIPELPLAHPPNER

NC(=O)CN1C2CCC1c1sc(C(=O)N3CCc4c(-c5cccc6c5CCN6C(=O)c5nc6c(s5)C5CCC(C6)N5CC(=O)O)cccc43)nc1C2 (stereo not shown) [Example 111, 2-(2-(1′-(9-(2-amino-2-oxoethyl)-5,6,7,8-tetrahydro-4H-5,8-epiminocyclohepta[d]thiazole-2-carbonyl)-[4,4′-biindoline]-1-carbonyl)-5,6,7,8-tetrahydro-4H-5,8-epiminocyclohepta[d]thiazol-9-yl)acetic acid] and Cc1nc(C(=O)Nc2cccc(-c3cccc4c3CCN4C(=O)c3nc(C)c(CN4CCCC[C@H]4C(=O)O)s3)c2Cl)sc1CN1CCCC[C@H]1C(=O)O [Example 60, (S)-1-((2-(3-(1-(5-(((S)-2-carboxypiperidin-1-yl)methyl)-4-methylthiazole-2-carbonyl)indolin-4-yl)-2-chlorophenylcarbamoyl)-4-methylthiazol-5-yl)methyl)piperidine-2-carboxylic acid] cannot be ordered by IC50: under 25 nM for the first, under 25 nM for the second.

Cc1c(NC(=O)c2ncc3c(n2)CCNC3)cccc1-c1cccc(NC(=O)c2ncc3c(n2)CCNC3)c1C [Example 188, N,N′-(2,2′-dimethyl-[1,1′-biphenyl]-3,3′-diyl)bis(5,6,7,8-tetrahydropyrido[4,3-d]pyrimidine-2-carboxamide)] and Cc1c(NC(=O)c2cn3c(n2)CNCC3)cccc1-c1cccc(NC(=O)c2nc3c(s2)CNCC3)c1C [Example 10, N-(2,2′-dimethyl-3′-(5,6,7,8-tetrahydroimidazo[1,2-a]pyrazine-2-carboxamido)-[1,1′-biphenyl]-3-yl)-4,5,6,7-tetrahydrothiazolo[5,4-c]pyridine-2-carboxamide] cannot be ordered by IC50: under 25 nM for the first, under 25 nM for the second.

First: O=C(Nc1cccc(-c2cccc(NC(=O)c3nc4c(s3)CN(CCO)CC4)c2Cl)c1Cl)c1nc2c(s1)CN(CCO)CC2 [Example 91, N,N′-(2,2′-dichloro-[1,1′-biphenyl]-3,3′-diyl)bis(5-(2-hydroxyethyl)-4,5,6,7-tetrahydrothiazolo[5,4-c]pyridine-2-carboxamide)]
Second: Cc1c(NC(=O)c2nc3c(s2)CN(Cc2ccc(Cl)c(Cl)c2)CC3)cccc1-c1cccc(NC(=O)c2nc3c(s2)CN(Cc2ccc(Cl)c(Cl)c2)CC3)c1C [Example 75, N,N′-(2,2′-dimethyl-[1,1′-biphenyl]-3,3′-diyl)bis(5-(3,4-dichlorobenzyl)-4,5,6,7-tetrahydrothiazolo[5,4-c]pyridine-2-carboxamide)]
The IC50 of the first is lower: under 25 nM for the first, 100 to 200 nM for the second. The first is the more potent here.

Cc1c(NC(=O)c2cn3c(n2)CN(C(C)CO)CC3)cccc1-c1cccc(NC(=O)c2cn3c(n2)CN(C(C)CO)CC3)c1C (stereo not shown) [Example 36, N,N′-(2,2′-dimethyl-[1,1′-biphenyl]-3,3′-diyl)bis(7-(1-hydroxypropan-2-yl)-5,6,7,8-tetrahydroimidazo[1,2-a]pyrazine-2-carboxamide)] and N#Cc1c(NC(=O)c2cn3c(n2)CNCC3)cccc1-c1cccc(NC(=O)c2cn3c(n2)CNCC3)c1C#N [Example 40, N,N′-(2,2′-dicyano-[1,1′-biphenyl]-3,3′-diyl)bis(5,6,7,8-tetrahydroimidazo[1,2-a]pyrazine-2-carboxamide)] cannot be ordered by IC50: under 25 nM for the first, under 25 nM for the second.

Compared with Cc1c(NCc2nnc(C3(N)CCC3)s2)cccc1-c1cccc(NCc2nnc(C3(N)CCC3)s2)c1C [Example 26, N3,N3′-bis((5-(1-aminocyclobutyl)-1,3,4-thiadiazol-2-yl)methyl)-2,2′-dimethyl-[1,1′-biphenyl]-3,3′-diamine], Cc1c(NC(=O)c2nnc([C@H](C)N)s2)cccc1-c1cccc(NC(=O)c2nnc([C@H](C)N)s2)c1C [Example 31, N,N′-(2,2′-dimethyl-[1,1′-biphenyl]-3,3′-diyl)bis(5-((S)-1-aminoethyl)-1,3,4-thiadiazole-2-carboxamide)] is lower in IC50: 25 to 100 nM for the first, under 25 nM for the second.

First: CCOC(=O)CNC(C)c1cnc(C(=O)Nc2cccc(-c3cccc(NC(=O)c4cnc(C(C)NCC(=O)OCC)cn4)c3C)c2C)cn1 (stereo not shown) [Example 179, diethyl 2,2′-((((((2,2′-dimethyl-[1,1′-biphenyl]-3,3′-diyl)bis(azanediyl))bis(carbonyl))bis(pyrazine-5,2-diyl))bis(ethane-1,1-diyl))bis(azanediyl))diacetate]
Second: CCOC(=O)CN1CCc2nc(C(=O)Nc3cccc(-c4cccc(NC(=O)c5ccc6c(n5)CCNC6)c4C)c3C)ccc2C1 [Example 170, ethyl 2-(2-((2,2′-dimethyl-3′-(5,6,7,8-tetrahydro-1,6-naphthyridine-2-carboxamido)-[1,1′-biphenyl]-3-yl)carbamoyl)-7,8-dihydro-1,6-naphthyridin-6(5H)-yl)acetate]
The IC50 of the first is higher: 25 to 100 nM for the first, under 25 nM for the second.

Compared with Cc1c(NC(=O)c2ccc3c(n2)CCN(CC(=O)OC(C)(C)C)C3)cccc1-c1cccc(NC(=O)c2ccc3c(n2)CCN(CC(=O)OC(C)(C)C)C3)c1C [Example 172, di-tert-butyl 2,2′-((((2,2′-dimethyl-[1,1′-biphenyl]-3,3′-diyl)bis(azanediyl))bis(carbonyl))bis(7,8-dihydro-1,6-naphthyridine-2,6(5H)-diyl))diacetate], COC(=O)N[C@H](C(=O)N1CCc2nc(C(=O)N3CCc4c(-c5cccc6c5CCN6C(=O)c5ccc6c(n5)CCN(C(=O)[C@@H](NC(=O)OC)C(C)C)C6)cccc43)ccc2C1)C(C)C [Example 168, dimethyl ((2S,2'S)-(([4,4′-biindoline]-1,1′-dicarbonyl)bis(7,8-dihydro-1,6-naphthyridine-2,6(5H)-diyl))bis(3-methyl-1-oxobutane-1,2-diyl))dicarbamate] is lower in IC50: 100 to 200 nM for the first, under 25 nM for the second. The second is the more potent here.

Compared with Cc1c(NC(=O)c2nnc(C3CCCN3)o2)cccc1-c1cccc(NC(=O)c2nnc(C3CCCN3)o2)c1C (stereo not shown) [Example 41, N,N′-(2,2′-dimethyl-[1,1′-biphenyl]-3,3′-diyl)bis(5-(pyrrolidin-2-yl)-1,3,4-oxadiazole-2-carboxamide)], Cc1c(NC(=O)c2nnc(CN)o2)cccc1-c1cccc(NC(=O)c2nnc(CN)o2)c1C [Example 18, N,N′-(2,2′-dimethyl-[1,1′-biphenyl]-3,3′-diyl)bis(5-(aminomethyl)-1,3,4-oxadiazole-2-carboxamide)] is higher in IC50: under 25 nM for the first, 25 to 100 nM for the second. The first is the more potent here.

Cc1c(Nc2nccc3cc(CNC4([C@H](C)O)CC4)cnc23)cccc1-c1cccc(Nc2nccc3cc(CNC4([C@H](C)O)CC4)cnc23)c1C [Example 157, (1S,1'S)-1,1′-((((((2,2′-dimethyl-[1,1′-biphenyl]-3,3′-diyl)bis(azanediyl))bis(1,7-naphthyridine-8,3-diyl))bis(methylene))bis(azanediyl))bis(cyclopropane-1,1-diyl))bis(ethan-1-ol)] and Cc1c(Nc2nccc3cc(CNCC(=O)O)cnc23)cccc1-c1cccc(Nc2nccc3cc(CN4CCC4)cnc23)c1C [Example 149, ((8-((3′-((3-(azetidin-1-ylmethyl)-1,7-naphthyridin-8-yl)amino)-2,2′-dimethyl-[1,1′-biphenyl]-3-yl)amino)-1,7-naphthyridin-3-yl)methyl)glycine] cannot be ordered by IC50: under 25 nM for the first, under 25 nM for the second.

Cc1nc(C(=O)Nc2cccc(-c3cccc(NC(=O)c4nc(C)c(CNCCO)s4)c3C)c2C)sc1CNCCO [Example 51, N,N′-(2,2′-dimethylbiphenyl-3,3′-diyl)bis(5-((2-hydroxyethylamino)methyl)-4-methylthiazole-2-carboxamide)] and Cc1nc(C(=O)Nc2cccc(-c3cccc(NC(=O)c4nc(C)c(CN[C@H](C(=O)O)C5CCOCC5)s4)c3Cl)c2C)sc1CN[C@H](C(=O)O)C1CCOCC1 [Example 55, (2S,2'S)-2,2′-(2,2′-(2-chloro-2′-methylbiphenyl-3,3′-diyl)bis(azanediyl)bis(oxomethylene)bis(4-methylthiazole-5,2-diyl))bis(methylene)bis(azanediyl)bis(2-(tetrahydro-2H-pyran-4-yl)acetic acid)] cannot be ordered by IC50: under 25 nM for the first, under 25 nM for the second.

Cc1c(Nc2nccc3cc(CNCC(=O)O)cnc23)cccc1-c1cccc(Nc2nccc3cc(CNCC(=O)O)cnc23)c1C [Example 138, 2,2′-(((((2,2′-dimethyl-[1,1′-biphenyl]-3,3′-diyl)bis(azanediyl))bis(1,7-naphthyridine-8,3-diyl))bis(methylene))bis(azanediyl))diacetic acid] and CC(C)[C@H](NCc1cnc(C(=O)Nc2cccc(-c3cccc(NC(=O)c4ncc(CN[C@H](C(=O)O)C(C)C)s4)c3Cl)c2Cl)s1)C(=O)O [Example 69, ((2-((3′-(5-((((S)-1-carboxy-2-methylpropyl)amino)methyl)thiazole-2-carboxamido)-2,2′-dichloro-[1,1′-biphenyl]-3-yl)carbamoyl)thiazol-5-yl)methyl)-L-valine] cannot be ordered by IC50: under 25 nM for the first, under 25 nM for the second.

N#Cc1c(NC(=O)c2nc3c(s2)CNCC3)cccc1-c1cccc(NC(=O)c2nc3c(s2)CNCC3)c1C#N [Example 74, N,N′-(2,2′-dicyano-[1,1′-biphenyl]-3,3′-diyl)bis(4,5,6,7-tetrahydrothiazolo[5,4-c]pyridine-2-carboxamide)] and Cc1c(NC(=O)c2nnc([C@H](C)N3CCCC[C@H]3C(=O)O)o2)cccc1-c1cccc(NC(=O)c2nnc([C@H](C)N3CCCC[C@H]3C(=O)O)o2)c1C [Example 16, (2S,2'S)-1,1′-((1S,1'S)-((((2,2′-dimethyl-[1,1′-biphenyl]-3,3′-diyl)bis(azanediyl))bis(carbonyl))bis(1,3,4-oxadiazole-5,2-diyl))bis(ethane-1,1-diyl))bis(piperidine-2-carboxylic acid)] cannot be ordered by IC50: under 25 nM for the first, under 25 nM for the second.

Same assay, conditions: recombinant human PD-L1 (19-238) His-tag / human PD-1 (25-167) Fc tag, numeric values

Cc1c(NC(=O)c2nc3c(s2)CN(C)CC3)cccc1-c1cccc(NC(=O)c2nc3c(s2)CN(C)CC3)c1C [Example 2, N,N′-(2,2′-dimethyl-[1,1′-biphenyl]-3,3′-diyl)bis(5-methyl-4,5,6,7-tetrahydrothiazolo[5,4-c]pyridine-2-carboxamide)] showed an IC50 of 0.74 nM.
